Here are results for four compounds from publication PMC6208296, “Redox regulation of pyruvate kinase M2 by cysteine oxidation and S-nitrosation” (Biochemical Journal, 2018).

pIC50: −log10 of the molar value. Like-named read-outs stand apart in the source and are kept apart here.

Type in all cases: biochemical
Test [1] deals with T1, M2PYK (Homo sapiens, UniProt P14618).
T1 construct: gene PKM; recombinant His-tagged WT M2 isoform
Put plainly: PYK enzyme activity assay, dose response with and without DTT and Ser.

Test [2] deals with T1, M2PYK. As to the kind of experiment: LDH-coupled enzyme assay with and without F-1,6-BP; protection from S-nitrosation (biotin switch).
Test [3] addresses T1, M2PYK. Put plainly: enzyme activity assay, competition of activator Ser with inhibitors Ala and Phe.

Usually pIC50 stands for the negative decadic logarithm of the IC50, by convention in mol/L.

T1 sequence (P14618 2-531): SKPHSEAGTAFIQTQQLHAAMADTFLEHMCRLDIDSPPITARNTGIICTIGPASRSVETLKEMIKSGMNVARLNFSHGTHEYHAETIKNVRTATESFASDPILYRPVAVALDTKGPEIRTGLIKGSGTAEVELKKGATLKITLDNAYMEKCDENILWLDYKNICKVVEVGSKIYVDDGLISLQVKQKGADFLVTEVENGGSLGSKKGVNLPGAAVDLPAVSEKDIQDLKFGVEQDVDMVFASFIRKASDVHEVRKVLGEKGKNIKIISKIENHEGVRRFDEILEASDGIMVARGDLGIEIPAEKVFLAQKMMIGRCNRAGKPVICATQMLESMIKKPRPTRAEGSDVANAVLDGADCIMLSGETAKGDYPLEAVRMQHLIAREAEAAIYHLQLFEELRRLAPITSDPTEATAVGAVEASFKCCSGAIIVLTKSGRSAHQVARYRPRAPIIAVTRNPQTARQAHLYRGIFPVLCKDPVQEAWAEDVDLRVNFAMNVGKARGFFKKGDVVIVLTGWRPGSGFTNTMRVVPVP

For the compound `C[C@H](N)C(=O)O` [L-alanine], the pIC50 in test [1] (read-out: IC50) is 4.35.
Turning to `O=P(O)(O)OC[C@H]1OC(O)(COP(=O)(O)O)[C@@H](O)[C@@H]1O` (stereo partly shown) [fructose 1,6-bisphosphate], the “LDH-coupled enzyme assay with and without F-1,6-BP; protection from S-nitrosatio” value in test [2] is “M2PYK complexes with FBP and Phe stabilise M2PYK in a tetrameric state and reduce the amount of nitrosation”.
For the compound `N[C@@H](CO)C(=O)O` [Ser], in test [3], the “enzyme activity assay, competition of activator Ser with inhibitors Ala and Phe” value was “Increasing Ser concentration further reduces the inhibitory effect of Ala which is expected as Ala and Ser compete”.
In turn, `N[C@@H](Cc1ccccc1)C(=O)O` [L-phenylalanine] showed a pIC50 in test [1] of 4.24.
